# “Also recorded” adds a separate entry of the source. Like-named read-outs stand apart in the source and are kept apart here.
# How the values were obtained:
# anti-DA antibodies = experiment: Equilibrium dialysis competition, displacement of (3H) DA-G-ALM; assay type: binding, rabbit; details: for affinity constant KA: displacement of (3H) DA-G-ALM from anti-DA antibodies; for affinity constant KA / KA: 1200 min; for KA: conjugates, cross-reactivity with anti-DA antibodies
# anti-TA antibodies = experiment: Equilibrium dialysis competition, displacement of (3H)-TA-G-ALM; assay type: binding, rabbit; details: for affinity constant KA: displacement of (3H)-TA-G-ALM from anti-TA antibodies; for affinity constant KA / KA: 1200 min; for KA: conjugates, slight immunoreactivity with anti-TA antibodies
# GABA antiserum = experiment: Immunocytochemical absorption controls of GABA antiserum on rat brain sections; design: species or system rabbit; details: absorption with a 10^-3 M solution
# Description: Rat brains were fixed by perfusion with a 5% solution of glutaraldehyde in a cacodylate buffer, 0.1M, pH 7.5. The brain was cut in slices approximately 4 mm thick and then fixed again for 1.5-2 hours using the same fixative.
# Sections of 50 micrometers were incubated with GABA antiserum diluted to 1/1,500. This antiserum was visualized using the peroxidase-antiperoxidasemethod, with diaminobenzidine as the chromogen.
# anti-GABA antiserum = experiment: Equilibrium dialysis competition with tracer (3H) GABA-GA-PPL; assay type: binding, rabbit; details: for cross-reactivity, times less than that of the GABA-GA-PPL conjugate: anti-GABA antiserum
# Description: The antibody solution is placed on one side of the membrane. Each conjugate of catecholamine is mixed with an equal volume of radioactive ligand before being placed on the other side of the membrane. The incubation solution of each antiserum is a citrate buffer 0.1M (pH 6.2) containing 1 mg/ml of bovine serum albumin (BSA) and 10 mM of sodium azide (N3 Na). The final volume is 2×150 microliters. This is left to incubate at 4° C. for 20 hours. Next the beta radioactivity in a sample of 100 microliters taken from each side of the membrane is counted.
# Studies of specificity were conducted using the method of equilibrium dialysis, by competition of the tracer (^3 H) GABA-GA-PPL and the various conjugated analogues GABA-GA-PPL, glycine-GA-PPL, etc.
# Anti-NA antibodies = assay type: binding, rabbit
# Anti-W antibodies = experiment: ELISA competition, affinity and specificity of anti-indolamine antibodies; assay type: binding, rabbit
# Description: This study was performed using an ELISA test (Enzyme-linked immunosorbent assay). The plates were coated with a solution of BSA-G-indolamine conjugate and then saturated with bovine serum. they were then placed in contact with the antibody solution under study, and then with anti-(rabbitgammaglobulin) goat antibodies conjugated with peroxidate of horseradish.
# [1] = concentrations between 10^-9 M and 10^-8 M
smiles,measurement,setting,value
CNC(=O)[C@H](CCCCNCCCCCNCCc1ccc(O)c(O)c1)NC(C)=O [DA-G-ALM],displacement of (3H) DA-G-ALM / recognition by anti-DA antibodies,anti-DA antibodies,No displacement
same,affinity constant KA,anti-DA antibodies,6.7×10^7 l.mol.^-1
same,displacement of (3H) DA-G-ALM / recognition by anti-DA antibodies,anti-DA antibodies; listed as DA-b-ALM,best displacement
same,displacement of (3H)-TA-G-ALM / recognition by anti-TA antibodies,anti-TA antibodies,No displacement; also recorded: no affinity
same,affinity constant KA,anti-TA antibodies,2.6×10^4 l.mol.^-1
"NCCCC(=O)O [GABA, gamma-aminobutyric acid, reference compound]",coloration after absorption of the serum,GABA antiserum,very great reduction in coloration
same,displacement of the radioactive ligand (3H) GABA-GA-PPL,anti-GABA antiserum; even at a concentration of 10^-5 M,incapable of displacing
O=C(O)CCCNCCCCCNCCCC[C@H](NC(=O)[C@H](Cc1ccccc1)NC(=O)[C@@H]1CCCN1)C(=O)O [GABA--GA--lysine],Kd,anti-GABA antiserum; dissociation constant of the anti-GABA antibodies for the antigen,20 nM
CNC(=O)[C@H](CCCCNCCCCCN[C@@H](Cc1ccc(O)c(O)c1)C(=O)O)NC(C)=O [L-DOPA--G--ALM],KA,anti-DA antibodies,3.8 × 10^5 1. mol.^-1
same,KA,anti-TA antibodies,3.3 × 10^5 1. mol.^-1
"NC[C@H](O)c1ccc(O)c(O)c1 [NA, norepinephrine, reference compound]",displacement,Anti-NA antibodies,no displacement
CNC(=O)[C@H](CCCCNCCCCCNCC(O)c1ccc(O)c(O)c1)NC(C)=O (some centres unmarked) [NA-G-ALM],displacement,Anti-NA antibodies,best displacement
same,KA,Anti-NA antibodies; 1200 min,3.8e+07 L/mol
same,"reactivity, times lower than that of DA-G-ALM",anti-DA antibodies; anti-DA antibodies,53 times
same,affinity constant KA,anti-DA antibodies,5×10^5 l.mol.^-1
same,displacement of (3H)-TA-G-ALM / recognition by anti-TA antibodies,anti-TA antibodies,No displacement
same,affinity constant KA,anti-TA antibodies,1.4×10^4 l.mol.^-1
CNC(=O)[C@H](CCCCNCCCCCNCC(O)c1ccc(O)cc1)NC(C)=O (some centres unmarked) [OA--G--ALM],KA,anti-DA antibodies,5 × 10^4 1. mol.^-1
same,KA,anti-TA antibodies,5.9 × 10^5 1. mol.^-1
"NCCc1ccc(O)cc1 [TA, p-tyramine, reference compound]",displacement of (3H)-TA-G-ALM / recognition by anti-TA antibodies,anti-TA antibodies,incapable of displacing
same,affinity constant KA,anti-TA antibodies,10^4 l.mol.^-1
CNC(=O)[C@H](CCCCNCCCCCNCCc1ccc(O)cc1)NC(C)=O [TA-G-ALM],displacement of (3H) DA-G-ALM / recognition by anti-DA antibodies,anti-DA antibodies,No displacement; also recorded: do not recognize
same,KA,anti-DA antibodies,3.1 × 10^4 1. mol.^-1
same,affinity constant KA,anti-TA antibodies,7×10^7 l.mol.^-1
"N[C@@H](Cc1c[nH]c2ccccc12)C(=O)O [Tryptophane, L-tryptophane]",displacement / identification by anti-W antibodies,Anti-W antibodies,only weakly identified
O=C(O)CC(NCCCCCNCCCC[C@H](NC(=O)[C@H](Cc1ccccc1)NC(=O)[C@@H]1CCCN1)C(=O)O)C(=O)O (some centres unmarked) [aspartate conjugate],reactivity with anti-GABA antiserum,anti-GABA antiserum; [1],No reactivity
O=C(O)CCNCCCCCNCCCC[C@H](NC(=O)[C@H](Cc1ccccc1)NC(=O)[C@@H]1CCCN1)C(=O)O [beta-alanine conjugate],"cross-reactivity, times less than that of the GABA-GA-PPL conjugate",anti-GABA antiserum,175 times
"NCCc1ccc(O)c(O)c1 [dopamine, reference compound]",affinity constant KA,anti-DA antibodies,6.7×10^3 l.mol.^-1
same,displacement of (3H) DA-G-ALM by unmodified hapten,anti-DA antibodies; even at a concentration of 10^-6 M,not capable of displacing
O=C(O)CCC(NCCCCCNCCCC[C@H](NC(=O)[C@H](Cc1ccccc1)NC(=O)[C@@H]1CCCN1)C(=O)O)C(=O)O (some centres unmarked) [glutamate conjugate],reactivity with anti-GABA antiserum,anti-GABA antiserum; [1],No reactivity
O=C(O)CNCCCCCNCCCC[C@H](NC(=O)[C@H](Cc1ccccc1)NC(=O)[C@@H]1CCCN1)C(=O)O [glycine conjugate],"cross-reactivity, times less than that of the GABA-GA-PPL conjugate",anti-GABA antiserum,795 times
O=C(O)[C@H](CCCCNCCCCCNCCS(=O)(=O)O)NC(=O)[C@H](Cc1ccccc1)NC(=O)[C@@H]1CCCN1 [taurine conjugate],reactivity with anti-GABA antiserum,anti-GABA antiserum,on the same order or magnitude as with the conjugate of aspartate or glutamate

# Source: patent US4762781A, “Antibodies capable of specifically identifying haptenic groups, their preparation and their use and to new antigens permitting their preparation” (priority 1983, dated 1988)
